Assay results: publication PMC8011931, “Identification, Structure–Activity Relationship, and Biological Characterization of 2,3,4,5-Tetrahydro-1H-pyrido[4,3-b]indoles as a Novel Class of CFTR Potentiators” (Journal of Medicinal Chemistry, 2020)

What was measured:
Assay type in all cases: cell-based
F508del-CFTR [1] = biological target: T1, F508del-CFTR (Homo sapiens, UniProt P13569, DEL508-508); test: HS-YFP assay on F508del-CFTR CFBE41o- cells, acute stimulation; parameters: expressed in transfected cells; settings: acute stimulation in the presence of forskolin, Figure 4A
T1 sequence (P13569 with tags, fused parts or gaps DEL508-508): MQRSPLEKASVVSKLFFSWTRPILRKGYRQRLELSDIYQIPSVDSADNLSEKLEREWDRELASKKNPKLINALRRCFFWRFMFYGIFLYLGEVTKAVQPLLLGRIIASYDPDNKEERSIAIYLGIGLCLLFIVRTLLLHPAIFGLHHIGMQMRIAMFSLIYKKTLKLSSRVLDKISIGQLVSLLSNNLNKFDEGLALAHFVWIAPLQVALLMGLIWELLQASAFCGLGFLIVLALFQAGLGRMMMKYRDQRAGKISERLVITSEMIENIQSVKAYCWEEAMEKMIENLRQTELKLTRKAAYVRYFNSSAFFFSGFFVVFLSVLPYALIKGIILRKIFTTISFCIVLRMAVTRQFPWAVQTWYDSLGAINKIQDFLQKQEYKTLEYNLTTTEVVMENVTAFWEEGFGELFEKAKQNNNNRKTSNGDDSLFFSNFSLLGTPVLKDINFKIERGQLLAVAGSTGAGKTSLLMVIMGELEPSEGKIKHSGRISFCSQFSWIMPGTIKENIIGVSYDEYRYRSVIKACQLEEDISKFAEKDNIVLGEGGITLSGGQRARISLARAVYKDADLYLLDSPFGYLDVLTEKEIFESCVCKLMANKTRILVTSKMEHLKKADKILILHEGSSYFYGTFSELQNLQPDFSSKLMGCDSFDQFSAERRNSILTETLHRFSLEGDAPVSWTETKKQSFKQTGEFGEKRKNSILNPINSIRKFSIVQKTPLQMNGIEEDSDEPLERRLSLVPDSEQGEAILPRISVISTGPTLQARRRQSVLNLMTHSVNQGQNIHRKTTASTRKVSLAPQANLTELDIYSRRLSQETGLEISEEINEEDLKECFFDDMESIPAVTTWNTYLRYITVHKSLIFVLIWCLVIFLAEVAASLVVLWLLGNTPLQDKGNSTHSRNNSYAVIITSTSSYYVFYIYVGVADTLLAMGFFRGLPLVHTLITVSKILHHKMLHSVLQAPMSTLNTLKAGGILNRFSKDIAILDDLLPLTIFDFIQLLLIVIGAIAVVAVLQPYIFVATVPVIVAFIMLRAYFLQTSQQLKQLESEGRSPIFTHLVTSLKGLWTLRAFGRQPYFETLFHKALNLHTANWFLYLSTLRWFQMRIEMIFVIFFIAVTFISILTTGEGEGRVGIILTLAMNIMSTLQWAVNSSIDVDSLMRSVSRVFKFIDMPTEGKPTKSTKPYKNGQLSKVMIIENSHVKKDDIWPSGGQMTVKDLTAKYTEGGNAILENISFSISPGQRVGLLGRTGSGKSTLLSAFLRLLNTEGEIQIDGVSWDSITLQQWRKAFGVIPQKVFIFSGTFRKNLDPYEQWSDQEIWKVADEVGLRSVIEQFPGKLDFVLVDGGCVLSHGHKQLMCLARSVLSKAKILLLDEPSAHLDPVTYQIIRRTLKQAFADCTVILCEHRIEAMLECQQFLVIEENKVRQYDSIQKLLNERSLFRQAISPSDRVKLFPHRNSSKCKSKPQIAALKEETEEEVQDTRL
Protocol: The preliminary activity of these three hits was further evaluated in secondary screening assays. Although featuring the same common scaffold, in order to possibly discriminate the most interesting hit for further structural investigations, the compounds belonging to the family of tetrahydro-γ-carbolines were tested on more relevant cell models. First, the hits were tested on an immortalized bronchial epithelial cell line (CFBE41o-) stably expressing F508del-CFTR and HS-YFP. […]
Prior assay, cells were washed with phosphate-buffered saline (PBS) containing (in mM) 137 NaCl, 2.7 KCl, 8.1 Na2HPO4, 1.5 KH2PO4, 1 CaCl2, and 0.5 MgCl2. […] Cells were then transferred to microplate readers (FluoStar Optima; BMG Labtech, Offenburg, Germany) for CFTR activity determination. The plate readers were equipped with high-quality excitation (HQ500/20X: 500 ± 10 nm) and emission (HQ535/30M: 535 ± 15 nm) filters for YFP (Chroma Technology). The assay consisted of a continuous 14 s fluorescence reading, 2 s before and 12 s after injection of 165 μL of an iodide-containing solution (PBS with Cl^– replaced by I^–; final I^– concentration 100 mM). Data were normalized to the initial background-subtracted fluorescence. […]

F508del-CFTR [2] = biological target: T1, F508del-CFTR; test: HS-YFP-based assay for CFTR activity on F508del-CFTR FRT cells rescued at 32 °C for 24 h; parameters: expressed in transfected cells; key to Emax: fold increase in F508del-CFTR rescue relative to hit 3 (normalized)
Protocol: The chemical library was screened in duplicate on a Fischer rat thyroid (FRT) cell line, stably coexpressing F508del-CFTR and the halide-sensitive yellow fluorescent protein, HS-YFP.[23],[34],[35] To overcome the F508del trafficking defect, cells were initially incubated for 24 h at 32 °C and then acutely treated (15–30 min) with a single compound (5 μM) in combination with forskolin (10 μM). After stimulation, the F508del-CFTR activity in the plasma membrane was calculated by measuring the rate of fluorescence quenching arising from iodide influx.[34] This activity was compared to that of wells containing forskolin alone (negative control) or forskolin plus VX-770 (1 μM, as a positive control) (Figure 2A). Analysis of screening performance with the Z′ method gave a score of 0.6, which can be considered optimal for this type of assay. The activity scores for each compound were then plotted as an ordered distribution (Figure 2B). All compounds whose average activity calculated from the two rounds of screening was greater than 185% with respect to the negative control (i.e., forskolin alone) were considered as primary hits.
The primary hits were confirmed by testing them at different concentrations, in order to extrapolate the dose–response relationship. First, we focused on the F508del mutant. The compounds were tested in the low micromolar range, in the presence of forskolin (10 μM), on F508del-CFTR FRT cells following rescue of the trafficking defect by low-temperature incubation, as done for the primary screening. The most interesting hits were subsequently tested for their ability to overcome the more severe gating defect of pure class III mutant using FRT cells stably expressing G551D-CFTR (Figure 3B).
The role of the heteroaryl group (A) acylating the position 2 of the tetrahydro-γ-carboline was initially explored by modifying the substituent on the pyrazolyl residue and replacing the pyrazole with other rings, while keeping the 8-methoxy carboline moiety unmodified. The activity of each compound is described in terms of normalized maximal efficacy (Emax), the maximum fold increase in the rescue of F508del-CFTR activity with respect to hit 3, and potency (EC50), the concentration producing half-maximal efficacy.
FRT cells stably expressing mutant F508del-CFTR or G551D-CFTR and the halide-sensitive yellow fluorescent protein (HS-YFP) YFP-H148Q/I152L and CFBE41o-cells stably expressing F508del-CFTR and HS-YFP were generated as previously described.[21],[57] FRT cells were cultured using the Coon’s modification of Ham’s F12 medium, while CFBE41o-cells were cultured in the modified Eagle’s medium. Media were supplemented with 10% fetal calf serum, 2 mM L-glutamine, 100 U/mL of penicillin, and […] of streptomycin. For functional assays of CFTR activity based on the HS-YFP assays, CFBE41o- or FRT cells were plated (50,000 cells/well) on clear-bottom 96-well black microplates (Corning Life Sciences, Acton, MA). The following day, cells were assayed. In the case of FRT cells expressing F508del-CFTR, plates were kept at 32 °C (or treated with correctors at 37 °C where indicated) for an additional 24 h to rescue the mutant trafficking defect, before assays.
Prior assay, cells were washed with phosphate-buffered saline (PBS) containing (in mM) 137 NaCl, 2.7 KCl, 8.1 Na2HPO4, 1.5 KH2PO4, 1 CaCl2, and 0.5 MgCl2. Cells were then incubated for 25 min with 60 μL of PBS plus forskolin (20 μM) and test compounds (at the desired concentration) to stimulate mutant CFTR. Cells were then transferred to microplate readers (FluoStar Optima; BMG Labtech, Offenburg, Germany) for CFTR activity determination. The plate readers were equipped with high-quality excitation (HQ500/20X: 500 ± 10 nm) and emission (HQ535/30M: 535 ± 15 nm) filters for YFP (Chroma Technology). […]

CFTR = biological target: T2, CFTR (Homo sapiens, UniProt P13569); test: Short-circuit current recordings on primary HBE cells from non-CF individuals
T2 construct: primary human bronchial epithelial (HBE) cells, from non-CF individuals; endogenous in cells; host or cells: primary human bronchial epithelial cells from non-CF individuals
T2 sequence (P13569 whole entry): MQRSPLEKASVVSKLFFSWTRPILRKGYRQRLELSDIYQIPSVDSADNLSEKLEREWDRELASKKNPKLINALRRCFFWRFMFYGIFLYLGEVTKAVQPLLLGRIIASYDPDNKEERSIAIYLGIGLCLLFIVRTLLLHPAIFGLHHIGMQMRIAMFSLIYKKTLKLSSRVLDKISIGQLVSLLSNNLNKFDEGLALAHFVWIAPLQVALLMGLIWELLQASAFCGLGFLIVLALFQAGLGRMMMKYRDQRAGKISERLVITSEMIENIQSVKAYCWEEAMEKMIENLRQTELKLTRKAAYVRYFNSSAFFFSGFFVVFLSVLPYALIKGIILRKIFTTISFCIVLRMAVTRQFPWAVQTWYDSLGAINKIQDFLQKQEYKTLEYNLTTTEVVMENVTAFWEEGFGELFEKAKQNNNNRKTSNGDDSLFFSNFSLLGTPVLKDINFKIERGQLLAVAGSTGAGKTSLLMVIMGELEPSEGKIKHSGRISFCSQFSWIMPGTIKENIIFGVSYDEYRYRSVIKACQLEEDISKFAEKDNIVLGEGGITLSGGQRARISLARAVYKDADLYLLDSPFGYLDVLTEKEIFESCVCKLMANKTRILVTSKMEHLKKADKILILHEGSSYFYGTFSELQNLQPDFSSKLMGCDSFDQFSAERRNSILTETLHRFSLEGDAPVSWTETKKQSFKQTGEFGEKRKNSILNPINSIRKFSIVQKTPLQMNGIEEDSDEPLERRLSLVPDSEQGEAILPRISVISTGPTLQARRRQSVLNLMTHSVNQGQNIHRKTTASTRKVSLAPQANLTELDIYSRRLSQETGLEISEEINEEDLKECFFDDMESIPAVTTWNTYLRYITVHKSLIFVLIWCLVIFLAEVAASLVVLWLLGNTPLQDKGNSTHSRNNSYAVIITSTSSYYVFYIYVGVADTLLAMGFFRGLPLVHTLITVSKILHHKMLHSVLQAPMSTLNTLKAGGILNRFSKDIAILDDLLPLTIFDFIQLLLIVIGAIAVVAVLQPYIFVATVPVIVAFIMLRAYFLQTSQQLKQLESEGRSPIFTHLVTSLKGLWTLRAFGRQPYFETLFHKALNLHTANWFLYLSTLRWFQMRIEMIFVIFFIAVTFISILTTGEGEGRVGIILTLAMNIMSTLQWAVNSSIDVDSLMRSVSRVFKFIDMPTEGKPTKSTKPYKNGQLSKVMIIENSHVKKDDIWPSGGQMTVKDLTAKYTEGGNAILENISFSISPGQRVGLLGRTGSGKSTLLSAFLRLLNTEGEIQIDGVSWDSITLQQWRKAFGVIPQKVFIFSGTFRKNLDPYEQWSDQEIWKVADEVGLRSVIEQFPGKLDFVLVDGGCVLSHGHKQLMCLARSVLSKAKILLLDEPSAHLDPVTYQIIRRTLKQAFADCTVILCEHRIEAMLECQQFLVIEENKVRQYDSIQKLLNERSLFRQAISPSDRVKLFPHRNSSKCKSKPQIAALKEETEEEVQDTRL
From the text: Subsequently, the ability of compounds to elicit CFTR-mediated chloride secretion was verified on primary human bronchial epithelial (HBE) cells, from non-CF individuals, in short-circuit current experiments. In this respect, it should be noticed that potentiators are also able to stimulate wild-type CFTR, provided that a submaximal cAMP-dependent stimulation is applied.[20],[22] Accordingly, cells were stimulated with a submaximal concentration of the cAMP analogue, CPT-cAMP, followed by increasing concentrations of the potentiator hit.[20],[22]
Finally, potentiator 39 and VX-770 were further evaluated in primary HBE cells from non-CF individuals, using short-circuit current measurements, to assess the ability of compounds to maximally activate CFTR function in the presence of a submaximal cAMP stimulation. After the addition of amiloride to inhibit sodium absorption through the ENaC channel, the potentiators were added at the maximal effective concentration (1 μM) after which epithelia were stimulated with a submaximal concentration of CPT-cAMP (5 μM), followed by a maximal concentration of the cAMP analogue (100 μM) (Figure 8). We then measured the extent of CFTR-mediated chloride current elicited by submaximal cAMP stimulation in the presence of a potentiator and compared it to total CFTR-mediated chloride current, determined as the current inhibited by CFTR inhibitor-172. In parallel, other epithelia were stimulated only with the two concentrations of the cAMP analogue, in the absence of a potentiator.
Primary bronchial epithelial cells were cultured as previously described.[58] In brief, epithelial cells were cultured in a serum-free medium (LHC9 mixed with RPMI 1640, 1:1) supplemented with hormones and supplements to support cell number amplification. Then, the cells were seeded at high density on porous membranes (500,000 cells for 1 cm^2 Snapwell inserts, for Ussing chamber studies; 200,000 cells for 0.33 cm^2 Mini-Transwell inserts, for TEER/PD measurements). After 24 h, the serum-free medium was replaced with Dulbecco’s modified Eagle’s medium (DMEM)/Ham’s F12 containing 2% fetal bovine serum (FBS) plus hormones and supplements. Differentiation of cells to form a tight epithelium was monitored by measuring transepithelial electrical resistance and potential difference with an epithelial voltohmmeter (EVOM1, World Precision Instruments). […]
Differentiated bronchial epithelia on Snapwell inserts were mounted in a Ussing chamber with internal fluid circulation. […] The short-circuit current was recorded with a PowerLab 4/25 (ADInstruments) analog-to-digital converter connected to a personal computer.

Row | dose-dependent activation of mutant CFTR (F508del-CFTR [1]) | EC50 (F508del-CFTR [2]; F508del-CFTR FRT cells rescued at 32 °C for 24 h, plus forskolin, mean ± SD (n = 3–6), n.a.: not active (up to 20 μM)) [µM] | Emax (F508del-CFTR [2]; supplementary csv, same data as Tables 1–3) | comparison of effectiveness of potentiators (CFTR; 1 μM for both compounds, Figure 8B) | increase of the fraction of CFTR-mediated chloride current activated by submaximal cAMP stimulation (CFTR; potentiator 1 μM, CPT-cAMP 5 μM, versus no potentiator) | SMILES
1 | the most effective | 0.12 ± 0.014 | 1.04 ± 0.07 |  |  | CN(C)c1ccc2cc(C(=O)N3CCc4[nH]c5ccccc5c4C3)[nH]c2c1 [Compound 1, (6-(Dimethylamino)-1H-indol-2-yl)-(1,3,4,5-tetrahydro-2H-pyrido[4,3-b]indol-2-yl)methanone]
2 |  |  |  | similarly effective | more than 2 fold | CC(C)(C)c1cc(C(C)(C)C)c(NC(=O)c2c[nH]c3ccccc3c2=O)cc1O [VX-770, reference compound]
